Source: paper PMC11279465, “Dual Inhibitors of P-gp and Carbonic Anhydrase XII (hCA XII) against Tumor Multidrug Resistance with Piperazine Scaffold” (Molecules, 2024)

Legend:
P-gp = P-gp (Homo sapiens, UniProt P08183); assay: Calcein-AM transport inhibition in MDCK-MDR1 cells; type: cell-based; set-up: expressed in transfected cells; host or cells: MDCK (Madin-Darby Canine Kidney); conditions: mean ± SEM
Text: The MDR interaction potency of these compounds was studied by detecting the inhibition of the P-gp-, MRP1- or BCRP-mediated efflux of a substrate in cells overexpressing the studied pumps. In detail, we measured the following: (i) the transport inhibition of the profluorescent probe calcein-AM (P-gp and MRP1 substrate) in MDCK-MDR1 and MDCK-MRP1 cells (P-gp- and MRP1-overexpressing cells, respectively); (ii) the transport inhibition of the fluorescent probe Hoechst 33342 (BCRP substrate) in MDCK-BCRP cells (BCRP-overexpressing cells).
Experiments were performed as previously described. MDCK-MDR1 and MDCK-MRP1 cells (30,000 cells per well) were seeded in a 96-well black CulturePlate in 100 µL of medium and allowed to grow overnight in a humidified atmosphere of 5% CO2 at 37 °C. Tested compounds (100 µL) in a final concentration ranging between 0.01 nM and 100 µM, solubilized in culture medium, were added to the monolayers. After 30 min in a humidified atmosphere of 5% CO2 at 37 °C, 100 µL of Calcein-AM in phosphate-buffered saline (PBS) was added to obtain a final concentration of 2.5 µM and the plate was incubated for 30 min. All wells were washed 3 times with 100 µL ice-cold PBS and read with Victor3 (PerkinElmer) after adding 100 µL of cold PBS. Excitation and emission wavelengths of 485 nm and 535 nm, respectively, were used. In these experimental conditions, cell Calcein-AM accumulation in the absence and in the presence of each tested compound was evaluated and compared to the basal level of fluorescence derived from untreated cells. The increase in fluorescence from the baseline level was measured in the treated wells. EC50 values were determined by fitting the rate of fluorescence increase versus log[dose].

K562/DOX cells = assay: Intrinsic cytotoxicity (MTT); type: cell-based, human; conditions: compound alone at 3 µM, 72 h
Method: Compounds were first studied at 1 and 3 µM concentrations to evaluate their intrinsic cytotoxicity in both the parental K562 and the resistant K562/DOX cell lines, using the MTT assay. All compounds had no intrinsic cytotoxicity in the parental line.
The intrinsic toxicity of the studied compounds was determined by an MTT assay. K562 and K562/DOX were exposed for 72 h with compounds at 1 and 3 µM concentrations while HT29, A549, HT29/DOX and A549/DOX cells were incubated for 48 h with compounds used at different concentrations (from 10 nM to 50 µM). The percentage of growth compared to the untreated control was transformed into histograms with the GraphPad Prism 5 program.

A549/DOX cells [1] = assay: TBARS (lipid peroxidation, 4-HNE kit); type: cell-based, human; conditions: 1 µM
Method: (§1) Selected compounds have been tested for their cytotoxic activity at 24 h on HT29/DOX and A549/DOX cells and on the parental HT29 and A549 cells by MTT assay. To evaluate the mechanisms involved in CS, reactive oxygen species (ROS) were measured using the fluorescent probe 5-(and-6)-chloromethyl-2′,7′-dichlorodihydro-fluorescein diacetate-acetoxymethyl ester (DCFDA-AM), as previously reported. The results were expressed as nmol/mg cellular proteins. The amount of TBARS, as an index of lipoperoxidation, was measured with the Lipid Peroxidation (4-HNE) Assay Kit (Abcam, Cambridge, UK) that evaluates the 4-hydroxy-nonenale, one of the TBARS Results were expressed as nmoles/mg mitochondrial protein.

HT29/DOX cells [2] = assay: TBARS (lipid peroxidation, 4-HNE kit); type: cell-based, human; conditions: 1 µM
Method: as §1

A549/DOX cells [3] = assay: Membrane fluidity; type: cell-based, human; conditions: 1 µM
Method: (§2) Membrane fluidity was measured fluorometrically using the Membrane Fluidity Kit, Abcam, according to the manufacturer’s instructions.

HT29/DOX cells [4] = assay: Membrane fluidity; type: cell-based, human; conditions: 1 µM
Method: as §2

Chain of P-gp (P08183 whole entry): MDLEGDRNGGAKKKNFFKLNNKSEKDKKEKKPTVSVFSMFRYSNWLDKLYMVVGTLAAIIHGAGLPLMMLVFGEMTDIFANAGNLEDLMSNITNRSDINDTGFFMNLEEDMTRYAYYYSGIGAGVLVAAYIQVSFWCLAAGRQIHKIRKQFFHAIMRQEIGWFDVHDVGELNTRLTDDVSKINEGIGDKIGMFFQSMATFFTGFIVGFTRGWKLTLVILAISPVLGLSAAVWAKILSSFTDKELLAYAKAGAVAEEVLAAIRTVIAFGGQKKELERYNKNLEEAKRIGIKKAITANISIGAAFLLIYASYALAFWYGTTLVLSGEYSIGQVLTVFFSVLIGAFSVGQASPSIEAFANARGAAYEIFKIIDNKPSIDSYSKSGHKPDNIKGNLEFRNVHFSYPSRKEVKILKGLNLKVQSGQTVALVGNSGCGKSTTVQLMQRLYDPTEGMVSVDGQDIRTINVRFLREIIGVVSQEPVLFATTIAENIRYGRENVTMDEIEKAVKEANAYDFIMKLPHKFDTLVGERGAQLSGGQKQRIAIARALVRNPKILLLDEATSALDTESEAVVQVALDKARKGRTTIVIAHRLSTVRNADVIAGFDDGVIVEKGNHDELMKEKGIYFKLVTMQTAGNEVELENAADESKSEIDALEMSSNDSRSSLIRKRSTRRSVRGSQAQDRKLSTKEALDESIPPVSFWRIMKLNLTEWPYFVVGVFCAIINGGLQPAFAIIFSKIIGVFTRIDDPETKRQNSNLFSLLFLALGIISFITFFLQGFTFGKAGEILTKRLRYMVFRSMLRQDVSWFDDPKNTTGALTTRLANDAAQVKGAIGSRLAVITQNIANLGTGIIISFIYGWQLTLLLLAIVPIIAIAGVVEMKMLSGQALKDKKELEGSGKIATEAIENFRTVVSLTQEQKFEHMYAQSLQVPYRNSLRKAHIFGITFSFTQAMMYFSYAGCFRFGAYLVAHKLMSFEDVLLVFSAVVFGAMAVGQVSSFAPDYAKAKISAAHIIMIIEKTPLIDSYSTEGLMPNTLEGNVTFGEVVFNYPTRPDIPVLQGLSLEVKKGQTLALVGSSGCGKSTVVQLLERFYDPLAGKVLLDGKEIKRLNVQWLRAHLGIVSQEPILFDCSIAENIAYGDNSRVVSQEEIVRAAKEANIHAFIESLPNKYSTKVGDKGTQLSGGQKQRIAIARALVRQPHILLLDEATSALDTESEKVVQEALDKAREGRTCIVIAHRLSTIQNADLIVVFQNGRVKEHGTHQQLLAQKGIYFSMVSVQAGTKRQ

For `COc1ccc(C(CCCN2CCN(CCCCOc3ccc4ccc(=O)oc4c3)CC2)c2ccc(OC)cc2)cc1` [Compound 27, 7-(4-(4-(4,4-Bis(4-methoxyphenyl)butyl)piperazin-1-yl)butoxy)-2H-chromen-2-one], the EC50 (P-gp) was 3.99 ± 0.11 µM, the “reduction of cellular viability” value (K562/DOX cells) was 30–50% and the “increase of TBARS levels compared to the control” value (from here on “increase of TBARS levels”) (A549/DOX cells [1]) was 4 times. For the same compound, the “increase of TBARS levels” value (HT29/DOX cells [2]) was 2.6 times, the membrane fluidity (A549/DOX cells [3]) was “increased membrane fluidity” and the membrane fluidity (HT29/DOX cells [4]) was “increased membrane fluidity”.

`COc1ccc(C(CCCN2CCN(CCCOc3ccc4oc(=O)ccc4c3)CC2)c2ccc(OC)cc2)cc1` [Compound 32, 6-(3-(4-(4,4-Bis(4-methoxyphenyl)butyl)piperazin-1-yl)propoxy)-2H-chromen-2-one] was tested, and the EC50 (P-gp) was 4.53 ± 0.17 µM, the “increase of TBARS levels” value (A549/DOX cells [1]) was 4 times and the “increase of TBARS levels” value (HT29/DOX cells [2]) was 2.6 times. The membrane fluidity (A549/DOX cells [3]) was “increased membrane fluidity” and the membrane fluidity (HT29/DOX cells [4]) was “increased membrane fluidity”.
